Common to all, as to format: in vivo
What all share (design):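 grade 0 to 5 of growth suppression where 5 is 90% or more and 0 below 10%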

Test [1] deals with Abutilon theophrasti medicus. Description: Herbicidal effects in upland field soil treatment (Test Example 2). The note with it: 1000 g active ingredient per hectare, 21st day after treatment, criteria of Table 138. Put shortly:
(§1)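 Upland soil, seeds sown and covered → diluted WP sprayed uniformly onto soil surface (1000 L/ha; 1000 g a.i./ha) → greenhouse → effect scored day 21.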

In test [2] the test system is Amaranthus viridis L. The test is described as above. The conditions noted are these: 1000 g active ingredient per hectare, 21st day after treatment, criteria of Table 138. Put shortly: as §1
Test [3] relates to Monochoria vaginalis (Burm. f.) Presl var. plantaginea (Roxb.) Solms-Laub. Description: Herbicidal effects in paddy field soil treatment (Test Example 1). The note with it: paddy field soil treatment; 1000 g of the active ingredient per hectare; wettable powder added dropwise on water surface; 21st day after treatment. A digest of the protocol:
(§2)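 Sow seeds in puddled, leveled paddy soil; waterlog to 3 cm depth. On the following day apply water-diluted wettable powder onto the water surface (1000 g a.i./ha). Grow in greenhouse and assess herbicidal effect at day 21.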

The subject of test [4] is Echinochloa oryzicola Vasing. Described as above. The conditions noted are these: paddy field soil treatment; 1000 g of the active ingredient per hectare; wettable powder added dropwise on water surface; 21st day after treatment. Put shortly: as §2
The subject of test [5] is Scirpus juncoides Roxb. var. ohwianus. T. Koyama. Described as above. The conditions noted are these: paddy field soil treatment; 1000 g of the active ingredient per hectare; wettable powder added dropwise on water surface; 21st day after treatment. Put shortly: as §2
For test [6], the system named is Echinochloa crus-galli (L.) P. Beauv. var. crus-galli. Description: Herbicidal effects in upland field foliar treatment (Test Example 3). The note with it: criteria of Table 138; for herbicidal effects on Echinochloa crus-galli (L.) P. Beauv. var. crus-galli: 1000 g of the active ingredient per hectare, 14th day after the treatment, wettable powder; for herbicidal effect (index) on Echinochloa crus-galli (L.) P. Beauv. var. crus-galli: 1000 g active ingredient per hectare, 14th day after treatment. A digest of the protocol:
(§3)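 Seeds sown in upland soil, grown 2 weeks in greenhouse; whole-plant overhead spray of diluted wettable powder at 1000 g a.i./ha (1000 L/ha); kept in greenhouse; effects graded by criteria at 14 d.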

Test [7] concerns Abutilon theophrasti medicus. Described as above. The note with it: criteria of Table 138; for herbicidal effects on Abutilon theophrasti medicus: 1000 g of the active ingredient per hectare, 14th day after the treatment, wettable powder; for herbicidal effect (index) on Abutilon theophrasti medicus: 1000 g active ingredient per hectare, 14th day after treatment. Put shortly:
as §3

In test [8] the test system is Amaranthus viridis L. The description is as above. The conditions noted are these: criteria of Table 138; for herbicidal effects on Amaranthus viridis L.: 1000 g of the active ingredient per hectare, 14th day after the treatment, wettable powder; for herbicidal effect (index) on Amaranthus viridis L.: 1000 g active ingredient per hectare, 14th day after treatment. Put shortly: as §3

Each structure is given as a SMILES string.

Regarding `O=C1CCCC(O)=C1C(=O)c1nc2cccnc2n(Cc2ccccc2OC(F)F)c1=O` [III-234], the “herbicidal effect (index) on Abutilon theophrasti medicus” value in test [1] is 5. Moreover, in test [2], the “herbicidal effect (index) on Amaranthus viridis L.” value is given as 5. Moreover, in test [3], the “Herbicidal effects index, Monochoria vaginalis (Burm. f.) Presl var. plantaginea (Roxb.) Solms-Laub.” value (“Herbicidal effects index … (Roxb.) Solms-Laub.” below) came to 5. Moreover, the “Herbicidal effects index, Echinochloa oryzicola Vasing” value in test [4] is 5. Besides, the “Herbicidal effects index, Scirpus juncoides Roxb. var. ohwianus. T. Koyama” value in test [5] came to 5. Besides, in test [6], the “herbicidal effects on Echinochloa crus-galli (L.) P. Beauv. var. crus-galli” value came to 5. The “herbicidal effects on Abutilon theophrasti medicus” value in test [7] was 5. Also, the “herbicidal effects on Amaranthus viridis L.” value in test [8] stood at 5.
For `O=C1CCCC(O)=C1C(=O)c1nc2cccnc2n(CCF)c1=O` [III-45], the “herbicidal effect (index) on Abutilon theophrasti medicus” value in test [1] stood at 4. Further, the “herbicidal effect (index) on Amaranthus viridis L.” value in test [2] is reported as 5. Further, in test [3], the “Herbicidal effects index … (Roxb.) Solms-Laub.” value came out at 5. Moreover, the “Herbicidal effects index, Echinochloa oryzicola Vasing” value in test [4] came out at 4. Further, in test [5], the “Herbicidal effects index, Scirpus juncoides Roxb. var. ohwianus. T. Koyama” value is 5. Also, in test [6], the “herbicidal effects on Echinochloa crus-galli (L.) P. Beauv. var. crus-galli” value was 5. Moreover, the “herbicidal effects on Abutilon theophrasti medicus” value in test [7] stood at 5. The “herbicidal effects on Amaranthus viridis L.” value in test [8] is given as 5.
On to `CN1C(=O)COc2ccc(-n3c(=O)c(C(=O)C4=C(O)CCCC4=O)nc4ccccc43)cc21` [I-275], for which the “herbicidal effect (index) on Abutilon theophrasti medicus” value in test [1] and in test [7] was 4 each time. Moreover, the “herbicidal effect (index) on Amaranthus viridis L.” value in test [2] and in test [8] was 5 each time. Further, the “Herbicidal effects index … (Roxb.) Solms-Laub.” value in test [3] was 5. Further, the “Herbicidal effects index, Echinochloa oryzicola Vasing” value in test [4] amounted to 4. For the same molecule, the “Herbicidal effects index, Scirpus juncoides Roxb. var. ohwianus. T. Koyama” value in test [5] came out at 5. In test [6], the “herbicidal effect (index) on Echinochloa crus-galli (L.) P. Beauv. var. crus-galli” value was determined as 5.
As to `O=C1CCCC(O)=C1C(=O)c1nc2ccccc2n(-c2cccc3c2OCCO3)c1=O` [II-226], the “herbicidal effect (index) on Abutilon theophrasti medicus” value in test [1] is given as 5. Moreover, the “herbicidal effect (index) on Amaranthus viridis L.” value in test [2] is reported as 5. Also, the “Herbicidal effects index … (Roxb.) Solms-Laub.” value in test [3] came out at 5. Also, in test [4], the “Herbicidal effects index, Echinochloa oryzicola Vasing” value came out at 5. Moreover, the “Herbicidal effects index, Scirpus juncoides Roxb. var. ohwianus. T. Koyama” value in test [5] came to 5. In addition, the “herbicidal effects on Echinochloa crus-galli (L.) P. Beauv. var. crus-galli” value in test [6] amounted to 5. In test [7], the “herbicidal effects on Abutilon theophrasti medicus” value is reported as 5. Also, the “herbicidal effects on Amaranthus viridis L.” value in test [8] is recorded as 5.
On to `Cc1ccc(-n2c(=O)c(C(=O)C3=C(O)CCCC3=O)nc3ccccc32)cc1F` [II-213], for which, in test [1], the “herbicidal effect (index) on Abutilon theophrasti medicus” value is on record as 5. Further, the “herbicidal effect (index) on Amaranthus viridis L.” value in test [2] was determined as 5. For the same molecule, the “Herbicidal effects index … (Roxb.) Solms-Laub.” value in test [3] is 5. In test [4], the “Herbicidal effects index, Echinochloa oryzicola Vasing” value is reported as 5. Further, the “Herbicidal effects index, Scirpus juncoides Roxb. var. ohwianus. T. Koyama” value in test [5] was 5. In test [6], the “herbicidal effects on Echinochloa crus-galli (L.) P. Beauv. var. crus-galli” value is reported as 4. Moreover, the “herbicidal effects on Abutilon theophrasti medicus” value in test [7] is given as 5. The “herbicidal effects on Amaranthus viridis L.” value in test [8] worked out at 5.
For the molecule `O=C1CCCC(O)=C1C(=O)c1nc2cccnc2n(-c2cccc(C(F)(F)F)c2)c1=O` [IV-39], the “herbicidal effect (index) on Abutilon theophrasti medicus” value in test [1] amounted to 5. In test [2], the “herbicidal effect (index) on Amaranthus viridis L.” value came to 5. In addition, the “Herbicidal effects index … (Roxb.) Solms-Laub.” value in test [3] came to 5. The “Herbicidal effects index, Echinochloa oryzicola Vasing” value in test [4] worked out at 5. The “Herbicidal effects index, Scirpus juncoides Roxb. var. ohwianus. T. Koyama” value in test [5] was 5. The “herbicidal effects on Echinochloa crus-galli (L.) P. Beauv. var. crus-galli” value in test [6] came to 5. Besides, the “herbicidal effects on Abutilon theophrasti medicus” value in test [7] stood at 5. Besides, in test [8], the “herbicidal effects on Amaranthus viridis L.” value is recorded as 5.
For the molecule `Cc1cc(Cn2c(=O)c(C(=O)C3=C(O)CCCC3=O)nc3ccccc32)on1` [I-213], the “herbicidal effect (index) on Abutilon theophrasti medicus” value in test [1] and in test [7] was 5 throughout. The “herbicidal effect (index) on Amaranthus viridis L.” value in test [2] and in test [8] was 5 each time. For the same molecule, the “Herbicidal effects index … (Roxb.) Solms-Laub.” value in test [3] is 5. Moreover, the “Herbicidal effects index, Echinochloa oryzicola Vasing” value in test [4] is listed as 4. Besides, the “Herbicidal effects index, Scirpus juncoides Roxb. var. ohwianus. T. Koyama” value in test [5] worked out at 5. Also, in test [6], the “herbicidal effect (index) on Echinochloa crus-galli (L.) P. Beauv. var. crus-galli” value was determined as 5.
Regarding `O=C1CCCC(O)=C1C(=O)c1nc2ccccc2n(-c2ccc(C(F)(F)F)cc2)c1=O` [II-44], in test [1], the “herbicidal effect (index) on Abutilon theophrasti medicus” value is on record as 5. Also, the “herbicidal effect (index) on Amaranthus viridis L.” value in test [2] was 5. Besides, the “Herbicidal effects index … (Roxb.) Solms-Laub.” value in test [3] is recorded as 5. Moreover, in test [4], the “Herbicidal effects index, Echinochloa oryzicola Vasing” value came to 5. Also, in test [5], the “Herbicidal effects index, Scirpus juncoides Roxb. var. ohwianus. T. Koyama” value amounted to 5. Further, the “herbicidal effects on Echinochloa crus-galli (L.) P. Beauv. var. crus-galli” value in test [6] came out at 5. For the same molecule, in test [7], the “herbicidal effects on Abutilon theophrasti medicus” value came out at 5. Also, the “herbicidal effects on Amaranthus viridis L.” value in test [8] stood at 5.
In the case of `COc1ccc(-n2c(=O)c(C(=O)C3=C(O)CCCC3=O)nc3ccccc32)c(OC)c1OC` [II-218], the “herbicidal effect (index) on Abutilon theophrasti medicus” value in test [1] stood at 5. In addition, in test [2], the “herbicidal effect (index) on Amaranthus viridis L.” value worked out at 5. For the same molecule, in test [3], the “Herbicidal effects index … (Roxb.) Solms-Laub.” value is 5. Also, in test [4], the “Herbicidal effects index, Echinochloa oryzicola Vasing” value is recorded as 4. In test [5], the “Herbicidal effects index, Scirpus juncoides Roxb. var. ohwianus. T. Koyama” value worked out at 5. In addition, the “herbicidal effects on Echinochloa crus-galli (L.) P. Beauv. var. crus-galli” value in test [6] came to 4. For the same molecule, in test [7], the “herbicidal effects on Abutilon theophrasti medicus” value is given as 5. For the same molecule, in test [8], the “herbicidal effects on Amaranthus viridis L.” value was determined as 5.
Regarding `O=C1CCCC(O)=C1C(=O)c1nc2ccccc2n(COCC(F)(F)F)c1=O` [I-59], the “herbicidal effect (index) on Abutilon theophrasti medicus” value in test [1] and in test [7] was 5 in each case. Moreover, the “herbicidal effect (index) on Amaranthus viridis L.” value in test [2] and in test [8] was 5 throughout. For the same molecule, in test [3], the “Herbicidal effects index … (Roxb.) Solms-Laub.” value was 5. Moreover, in test [4], the “Herbicidal effects index, Echinochloa oryzicola Vasing” value was 5. Moreover, the “Herbicidal effects index, Scirpus juncoides Roxb. var. ohwianus. T. Koyama” value in test [5] turned out to be 5. The “herbicidal effect (index) on Echinochloa crus-galli (L.) P. Beauv. var. crus-galli” value in test [6] is given as 5.
As for `Cc1ccc(-n2c(=O)c(C(=O)C3=C(O)CCCC3=O)nc3cccnc32)cc1` [IV-21], the “herbicidal effect (index) on Abutilon theophrasti medicus” value in test [1] was found to be 5. Moreover, the “herbicidal effect (index) on Amaranthus viridis L.” value in test [2] is reported as 5. The “Herbicidal effects index … (Roxb.) Solms-Laub.” value in test [3] came to 5. In test [4], the “Herbicidal effects index, Echinochloa oryzicola Vasing” value was 5. Moreover, the “Herbicidal effects index, Scirpus juncoides Roxb. var. ohwianus. T. Koyama” value in test [5] was 5. Besides, the “herbicidal effects on Echinochloa crus-galli (L.) P. Beauv. var. crus-galli” value in test [6] amounted to 5. In addition, the “herbicidal effects on Abutilon theophrasti medicus” value in test [7] was found to be 5. In addition, the “herbicidal effects on Amaranthus viridis L.” value in test [8] is listed as 5.
Turning to `COc1cccc(-n2c(=O)c(C(=O)C3=C(O)CCCC3=O)nc3ccccc32)c1` [II-57], the “herbicidal effect (index) on Abutilon theophrasti medicus” value in test [1] stood at 5. Besides, the “herbicidal effect (index) on Amaranthus viridis L.” value in test [2] came to 5. Also, the “Herbicidal effects index … (Roxb.) Solms-Laub.” value in test [3] turned out to be 5. Further, in test [4], the “Herbicidal effects index, Echinochloa oryzicola Vasing” value is 5. Further, the “Herbicidal effects index, Scirpus juncoides Roxb. var. ohwianus. T. Koyama” value in test [5] stood at 5. Moreover, in test [6], the “herbicidal effects on Echinochloa crus-galli (L.) P. Beauv. var. crus-galli” value is recorded as 5. In test [7], the “herbicidal effects on Abutilon theophrasti medicus” value amounted to 5. Besides, the “herbicidal effects on Amaranthus viridis L.” value in test [8] is 5.

The record behind these values is patent US8389523B2, “Substituted quinoxaline and an agrochemical composition thereof” (Kumiai Chemical Industry Co., Ltd., priority 2007, dated 2013).
